Data set [1] is described as follows: UV/Vis absorption spectra, molar absorption coefficients. The format is physicochemical. The following applies: EtOH; for Absorption λmax, B(0,0): Soret band. The protocol:
All commercial chemicals and reagents were of analytical grade and were purchased from Sigma-Aldrich. UV/Vis absorption spectra were recorded in a Hewlett Packard HP8453 spectrophotometer. Solutions containing samples of photosensitizers were dissolved in the selected solvent in quartz cuvettes. Using measured absorbance for various concentrations of porphyrin in ethanol, the molar absorption coefficients were determined from Beer’s law.

Data set [2] can be described thus: Fluorescence emission and fluorescence quantum yield (comparative method). The format is physicochemical. The following applies: EtOH, TPP as standard. The protocol:
(§1) Fluorescence emission spectra were recorded from 550 nm to 750 nm with excitation at Soret band (λ≈420 nm). The excitation and emission slits were both set to 8 nm and scanning speed to 50 nm/min. Fluorescence spectra were recorded with a Perkin Elmer Fluorescence Spectrometer LS 55. Determination of fluorescence quantum yields: ΦF of studied photosensitizers was determined using the comparative method according to the equation: ΦF=ΦFStd⋅FAStdn^2/FStdAnStd2, (1) where F and FStd are the areas under the fluorescence emission curves of the sample and the standard, A and AStd are the absorbance of the sample and the standard and n are the refractive indices of the solvent used for the sample and the standard, respectively. Commercially available tetraphenylporphyrin TPP (Std) (ΦF = 0.10 in toluene) was employed as the standard. The absorbance of the solutions at the excitation wavelength was in the range of 0.02. Singlet oxygen quantum yields were determined based on the relative phosphorescence emissions of singlet oxygen generated by a reference and by each one of the porphyrins, using a method described elsewhere. Briefly, a modified Applied Photophysics LKS.60 flash photolysis spectrometer with a Hamamatsu NIR photomultiplier for detection and HP Infinium (500 MHz, 1GSas^-1) or Tektronix DPO 7254 (2.5 GHz, 40GSas^-1) oscilloscopes were used. The adaptation of this spectrometer allowed for the detection of singlet oxygen phosphorescence at room temperature. This emission was detected using a Hamamatsu R5509–42 photomultiplier, cooled to 193 K in a liquid nitrogen chamber. […] The modification of the spectrometer for time-resolved singlet oxygen phosphorescence measurements involved the interposition of a Melles Griot cold mirror (03MCS005), which reflects more than 99% of the incident light in the 400–700 nm range, and of a Scotch RG665 filter. A 600 line diffraction grating was mounted in place of a standard one. […] Solutions of photosensitizers were prepared with matched absorbances close to 0.2 at 355 nm. […]

The nature of data set [3]: Singlet oxygen quantum yield by phosphorescence at 1270 nm. It is filed as physicochemical. The note with it: EtOH, phenalenone as reference. The method, then: as §1
Data set [4] in a line: n-Octanol/PBS partition coefficient, shake-flask. It is filed as physicochemical. The note with it: modified shake-flask. The method, then:
The n-octanol/PBS partition coefficients were measured following shake-flask method with minor modifications. The photosensitizers were dissolved in n-octanol previously saturated with a solution of PBS. The same volume of PBS saturated with n-octanol was added and mixed on a vortex device and then the phases were separated by centrifugation. Next, the PBS/n-octanol phase was taken and diluted to obtain 0.5% of PBS/n-octanol content in the final solution. This solution was left into the ultrasonic bath. The fluorescence of each solution was measured using Fluorescence Spectrometer LS 55 (Perkin Elmer) and compared with calibration curve to obtain the concentration of the photosensitizer. Partition coefficients were calculated from the ratio coct/cPBS, where coct and cPBS are the concentrations of the porphyrin derivatives in the n-octanol and in the PBS.

A further data set addresses HSA (Homo sapiens, UniProt P02768). The data set can be described thus: Binding to HSA by fluorescence quenching (Stern-Volmer, Scatchard). The following applies: for KSV (Stern-Volmer constant), HSA: HSA fluorescence quenching, PBS, room temperature; for n (number of binding sites), HSA: Scatchard analysis. The protocol:
The binding of the PS to HSA was studied by spectrofluorometry at room temperature. An aqueous (phosphate buffer saline, PBS) solution of HSA was titrated with varying concentrations of the respective porphyrin solutions. HSA was excited at 295 nm and fluorescence was recorded between 300 nm and 400 nm. The systematic lowering of HSA fluorescence with increasing photosensitizer concentrations was noted and used in the determination of the binding constants and the number of binding sites on HSA according to Scatchard equation. The changes in HSA fluorescence intensity were related to porphyrin concentrations by the Stern-Volmer relationship. The binding constant (Kb) of PS to lipoproteins was also determined using the spectroscopic titration method. The sets of steady-state emission spectra of PBS solutions with different concentrations of HDL and LDL, to which the porphyrin (5 μM) was added were measured. The fluorescence intensity of the dye increased upon its partitioning into the lipoproteins. To obtain Kb, F versus [L] data were plotted and fitted to by a nonlinear regression routine.

Data set [5] relates to P. aeruginosa (ATCC19660). The data set can be described thus: Photodynamic inactivation of microorganisms, CFU. The format is cell-based. The following applies: PDI 10 J/cm^2, 420±20 nm, concentration not given. The method, then:
(§2) The microorganisms used in PDI were: S. aureus (8325–4), E. faecalis (ATCC29212), E. coli (K12), P. aeruginosa (ATCC19660), S. marcescens (ATCC14756) and C. albicans (DAY286). The planctonic bacteria cells were cultured in brain heart infusion broth (Sigma-Aldrich) and LB Broth/Lennox (BioShop Lab Science Products) in an orbital incubator (37°C, 130 rpm), until the optical density reached 0.5, which corresponds to approximately 10^7 CFU per mL. The fungal yeasts were cultured in YPD Broth (BioShop) with overnight aeration at 30°C to reach ca. 10^6 CFU/mL. For PDI experiments cell suspensions of bacteria or fungal yeasts were incubated with various concentrations of the porphyrins at pH 7.4 (PBS) for 1 h in the dark at room temperature. Aliquots (1 mL) were transferred to a 12-well plate and illuminated with a blue light. We used blue-LED array (420±20 nm) to deliver a light dose of 10 J/cm^2 (measured with a power meter). Cells treated with photosensitizers in the dark were incubated covered with aluminum foil for the same time as the PDI groups (1 h). After illumination (or dark incubation) samples were shaken, diluted in PBS, mixed and plated (LB agar). Aliquots were taken from each well to determine the CFU value. Plates were streaked in triplicate and incubated for 12–36 h at 30 °C (for fungal yeasts) or 37 °C (for bacteria) in the dark to allow colony formation.

The subject of another data set is E. coli (K12). As to the kind of experiment: Photodynamic inactivation of microorganisms, CFU. The format is cell-based. The note with it: PDI 10 J/cm^2, 420±20 nm, concentration not given. The protocol:
as §2

Data set [6] is described as follows: Photodegradation (photostability) under xenon lamp irradiation. The format is physicochemical. The following applies: same irradiation conditions as in the biological studies. The protocol:
The photostability of porphyrins was investigated following the measurement of their optical absorption in aqueous solutions. Continuous irradiation of an aerated solution were carried out using the xenon lamp (XBO-150) through the 10 cm water filter and bandpass filter transmitting within >400 nm range, delivering 75 mW/cm^2. The reaction progress was monitored by UV/Vis spectroscopy using a Hewlett Packard HP8453 spectrophotometer.

Details of data set [7]: method as in earlier work. The following applies: non-halogenated standard, in toluene; cited from earlier work.
The conditions of data set [8]: reference compound, in ethanol; cited from earlier work.

Each structure is given as a SMILES string. Read-outs that look alike come from different tables or passages of the source.

Sequence of HSA (P02768 25-609): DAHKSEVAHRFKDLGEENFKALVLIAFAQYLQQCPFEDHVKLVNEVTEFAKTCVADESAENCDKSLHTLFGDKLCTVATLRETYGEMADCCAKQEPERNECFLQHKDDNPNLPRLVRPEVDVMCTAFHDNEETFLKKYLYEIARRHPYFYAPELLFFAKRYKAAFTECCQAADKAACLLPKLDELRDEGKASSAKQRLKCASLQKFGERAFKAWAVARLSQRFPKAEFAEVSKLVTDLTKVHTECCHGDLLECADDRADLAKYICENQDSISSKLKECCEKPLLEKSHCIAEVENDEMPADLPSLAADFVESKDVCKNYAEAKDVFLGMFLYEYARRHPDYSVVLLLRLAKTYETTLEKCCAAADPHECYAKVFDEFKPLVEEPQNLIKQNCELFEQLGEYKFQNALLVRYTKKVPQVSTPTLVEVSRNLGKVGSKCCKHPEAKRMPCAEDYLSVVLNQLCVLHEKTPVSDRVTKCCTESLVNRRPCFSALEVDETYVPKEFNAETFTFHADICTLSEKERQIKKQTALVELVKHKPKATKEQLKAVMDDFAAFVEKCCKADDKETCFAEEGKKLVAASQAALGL

As usually defined, the logP is the decadic logarithm of the partition coefficient of the neutral form, usually between octanol and water. Take `CCNS(=O)(=O)c1ccc(Cl)c(-c2c3nc(c(-c4c(Cl)ccc(S(=O)(=O)NCC)c4Cl)c4ccc([nH]4)c(-c4c(Cl)ccc(S(=O)(=O)NCC)c4Cl)c4nc(c(-c5c(Cl)ccc(S(=O)(=O)NCC)c5Cl)c5ccc2[nH]5)C=C4)C=C3)c1Cl` [Cl2PEt, 5,10,15,20-tetrakis(2,6-dichloro-3-N-ethylsulfamoylphenyl)porphyrin]: in data set [1], the “Absorption λmax, Qx (0,1)” value is recorded as 592 nm; the “Absorption λmax, Qx(0,0)” value is listed as 646 nm; the “Absorption λmax, Qy (0,0)” value is listed as 546 nm; the “Absorption λmax, Qy (0,1)” value worked out at 514 nm. Further, in data set [1], the “Absorption λmax, B(0,0)” value turned out to be 418 nm. Moreover, the “Fluorescence quantum yield ΦF” value in [2] is recorded as 0.017. Besides, the “Singlet oxygen quantum yield ΦΔ” value in data set [3] was found to be 0.85. The molecule further returned a lipophilicity (logP) in data set [4] of 1.84. Moreover, at HSA, the “KSV (Stern-Volmer constant), HSA” value is reported as 6.62 10^5M^-1 and the “n (number of binding sites), HSA” value was found to be 1. For the same molecule, the “Decrease in survival / bacteria CFU killing” value in [5] is given as “up to 3 logs”.

With `O=S(=O)(O)c1ccc(Cl)c(-c2c3nc(c(-c4c(Cl)ccc(S(=O)(=O)O)c4Cl)c4ccc([nH]4)c(-c4c(Cl)ccc(S(=O)(=O)O)c4Cl)c4nc(c(-c5c(Cl)ccc(S(=O)(=O)O)c5Cl)c5ccc2[nH]5)C=C4)C=C3)c1Cl` [Cl2POH, 5,10,15,20-tetrakis(2,6-dichloro-3-sulfophenyl)porphyrin], in data set [1], the “Absorption λmax, Qx (0,1)” value is 592 nm; the “Absorption λmax, Qx(0,0)” value is 646 nm; the “Absorption λmax, Qy (0,0)” value turned out to be 546 nm; the “Absorption λmax, Qy (0,1)” value turned out to be 514 nm. In data set [1], the “Absorption λmax, B(0,0)” value is listed as 420 nm. For the same molecule, in data set [2], the “Fluorescence quantum yield ΦF” value is 0.015. Also, the “Singlet oxygen quantum yield ΦΔ” value in data set [3] is 0.98. Further, in data set [4], the logP was -1.8. On HSA, the “KSV (Stern-Volmer constant), HSA” value is on record as 4.66 10^5M^-1 and the “n (number of binding sites), HSA” value came out at 1. For the same molecule, in the data set on E. coli (K12), the Decrease in survival is 1.5–2 logs. In data set [5], the “Decrease in survival / bacteria CFU killing” value is reported as 1.5–2 logs.

For `C=CC1=C(C)c2cc3[nH]c(cc4nc(cc5[nH]c(cc1n2)c(C)c5CCC(=O)O)C(CCC(=O)O)=C4C)c(C)c3C=C` [PpIX], the “Photostability (Soret band absorbance during irradiation)” value in data set [6] is reported as “more prone to photooxidation”.

As to `C1=Cc2nc1c(-c1ccccc1)c1nc(c(-c3ccccc3)c3ccc([nH]3)c(-c3ccccc3)c3ccc([nH]3)c2-c2ccccc2)C=C1` [TPP, tetraphenylporphyrin], the “Fluorescence quantum yield ΦF” value in data set [7] was 0.10.

Regarding `O=C1C=Cc2cccc3cccc1c23` [phenalenone], the “Singlet oxygen quantum yield ΦΔ” value in data set [8] is given as 0.95 ± 0.02.

(Values after paper PMC5634595, “Properties of halogenated and sulfonated porphyrins relevant for the selection of photosensitizers in anticancer and antimicrobial therapies” (PLoS ONE, 2017).)
